Measurements taken from ChEMBL document CHEMBL4196083, “Discovery of meta-sulfamoyl N-hydroxybenzamides as HDAC8 selective inhibitors” (Eur J Med Chem, 2018).
pIC50: −log10 of the molar value.

Tests used:
[1] = target: Histone deacetylase (HDAC1 and HDAC2) (Homo sapiens, UniProt Q13547+Q92769); test: Inhibition of HDAC1/2 in human HeLa nuclear extract using Boc-Lys(acetyl)-AMC as substrate preincubated for 5 mins followed by substrate addition measured after 30 mins by fluorescence assay; format: ADME, protein assay
Histone deacetylase 2 = Histone deacetylase 2 (Homo sapiens, UniProt Q92769); test: Inhibition of HDAC2 (unknown origin) using Boc-Lys(acetyl)-AMC as substrate preincubated for 5 mins followed by substrate addition measured after 30 mins by fluorescence assay; format: ADME
Sequence of Histone deacetylase 2 (Q92769 whole entry): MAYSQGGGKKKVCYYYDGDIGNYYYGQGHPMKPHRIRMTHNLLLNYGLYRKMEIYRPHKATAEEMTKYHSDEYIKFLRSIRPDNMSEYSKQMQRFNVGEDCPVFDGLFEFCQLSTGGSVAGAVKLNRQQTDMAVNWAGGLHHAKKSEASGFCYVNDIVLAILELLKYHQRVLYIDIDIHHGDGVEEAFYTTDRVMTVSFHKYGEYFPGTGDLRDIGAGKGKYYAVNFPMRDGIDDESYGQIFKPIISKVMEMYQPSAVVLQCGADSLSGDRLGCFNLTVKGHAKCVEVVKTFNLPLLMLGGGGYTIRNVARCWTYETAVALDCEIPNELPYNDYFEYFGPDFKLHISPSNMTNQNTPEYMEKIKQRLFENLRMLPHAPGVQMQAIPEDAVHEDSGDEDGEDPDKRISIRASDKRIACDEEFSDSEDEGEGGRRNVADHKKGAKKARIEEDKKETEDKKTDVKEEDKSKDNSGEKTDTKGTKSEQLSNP

Histone deacetylase 8 = target: T1, Histone deacetylase 8 (Homo sapiens, UniProt Q9BY41); test: Inhibition of HDAC8 (unknown origin) using Boc-Lys(trifluoroacetyl)-AMC as substrate preincubated for 5 mins followed by substrate addition measured after 30 mins by fluorescence assay
T1 sequence (Q9BY41 whole entry): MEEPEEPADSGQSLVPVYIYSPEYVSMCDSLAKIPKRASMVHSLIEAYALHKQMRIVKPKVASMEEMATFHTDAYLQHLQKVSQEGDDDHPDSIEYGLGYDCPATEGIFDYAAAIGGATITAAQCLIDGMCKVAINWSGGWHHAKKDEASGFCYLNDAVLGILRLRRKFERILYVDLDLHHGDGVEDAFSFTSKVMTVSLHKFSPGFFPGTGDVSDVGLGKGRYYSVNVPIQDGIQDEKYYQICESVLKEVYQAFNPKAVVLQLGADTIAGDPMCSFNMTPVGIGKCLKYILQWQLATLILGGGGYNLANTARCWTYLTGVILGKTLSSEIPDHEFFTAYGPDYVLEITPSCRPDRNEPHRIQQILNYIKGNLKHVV

[2] = target: T2, Protein deacetylase HDAC6 (Homo sapiens, UniProt Q9UBN7); test: Inhibition of HDAC6 (unknown origin) using Boc-Lys(acetyl)-AMC as substrate preincubated for 5 mins followed by substrate addition measured after 30 mins by fluorescence assay
T2 sequence (Q9UBN7 whole entry): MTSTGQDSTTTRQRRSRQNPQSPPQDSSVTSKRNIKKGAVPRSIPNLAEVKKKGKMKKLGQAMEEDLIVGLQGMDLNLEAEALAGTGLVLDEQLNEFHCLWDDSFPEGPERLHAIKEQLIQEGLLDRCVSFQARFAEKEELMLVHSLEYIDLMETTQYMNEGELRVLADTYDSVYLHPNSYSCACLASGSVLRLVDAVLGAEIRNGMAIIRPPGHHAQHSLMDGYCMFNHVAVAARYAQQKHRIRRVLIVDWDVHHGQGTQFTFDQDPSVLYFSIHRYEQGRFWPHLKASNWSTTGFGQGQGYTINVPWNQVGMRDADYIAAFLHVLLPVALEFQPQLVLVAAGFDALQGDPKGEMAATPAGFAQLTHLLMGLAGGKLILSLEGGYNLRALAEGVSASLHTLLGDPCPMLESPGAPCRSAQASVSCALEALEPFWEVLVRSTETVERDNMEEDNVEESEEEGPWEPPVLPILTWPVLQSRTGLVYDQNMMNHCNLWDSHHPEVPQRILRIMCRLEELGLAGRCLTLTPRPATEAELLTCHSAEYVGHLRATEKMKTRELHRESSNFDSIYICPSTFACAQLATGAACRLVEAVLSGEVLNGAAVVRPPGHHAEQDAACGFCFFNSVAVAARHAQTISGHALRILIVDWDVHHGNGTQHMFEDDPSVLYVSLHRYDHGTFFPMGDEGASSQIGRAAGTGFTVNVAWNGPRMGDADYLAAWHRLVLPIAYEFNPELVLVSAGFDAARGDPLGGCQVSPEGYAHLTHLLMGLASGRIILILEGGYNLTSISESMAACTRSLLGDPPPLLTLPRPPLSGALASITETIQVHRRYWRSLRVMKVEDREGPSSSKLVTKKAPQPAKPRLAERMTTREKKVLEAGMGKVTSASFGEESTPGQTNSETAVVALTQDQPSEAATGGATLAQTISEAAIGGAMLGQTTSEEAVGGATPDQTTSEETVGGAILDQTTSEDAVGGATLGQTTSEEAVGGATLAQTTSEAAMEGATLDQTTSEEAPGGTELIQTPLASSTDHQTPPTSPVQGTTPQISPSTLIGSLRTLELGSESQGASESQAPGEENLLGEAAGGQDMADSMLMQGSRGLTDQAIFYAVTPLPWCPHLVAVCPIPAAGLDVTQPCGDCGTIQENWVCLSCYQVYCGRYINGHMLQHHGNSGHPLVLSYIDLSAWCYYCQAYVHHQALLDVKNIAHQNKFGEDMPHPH

PC-3 = test: Antiproliferative activity against human PC3 cells after 48 hrs by MTT assay; format: functional, cell-based; settings: PC-3, 48 h
[3] = target: Histone deacetylase 1/2/3 (Homo sapiens, UniProt Q13547+O15379+Q92769); test: Inhibition of HDAC1/2/3 in human HeLa cells assessed as increase in acetyl-histone H4 level at 2 uM after 12 hrs by Western blot analysis
HeLa = test: Antiproliferative activity against human HeLa cells after 48 hrs by MTT assay; format: functional, cell-based
[4] = Antiproliferative activity against human SK-N-BE(2) cells after 48 hrs by MTT assay; format: functional, cell-based; settings: SKNBE2, 48 h
[5] = target: T2, Protein deacetylase HDAC6; test: Inhibition of HDAC6 in human HeLa cells assessed as increase in acetyl-tubulin level at 2 uM after 12 hrs by Western blot analysis; format: cell-based
Jurkat = test: Antiproliferative activity against human Jurkat cells after 48 hrs by MTT assay; format: functional, cell-based
HEL = test: Antiproliferative activity against human HEL cells after 48 hrs by MTT assay; format: functional, cell-based
MOLT-4 = test: Antiproliferative activity against human MOLT4 cells after 48 hrs by MTT assay; format: functional, cell-based; settings: MOLT-4, 48 h
K562 = test: Antiproliferative activity against human K562 cells after 48 hrs by MTT assay; format: functional, cell-based; settings: K562, 48 h
Homo sapiens [6] = species: Homo sapiens; test: Selectivity ratio of IC50 for HDAC2 (unknown origin) to IC50 for HDAC8 (unknown origin)
Homo sapiens [7] = species: Homo sapiens; test: Selectivity ratio of IC50 for HDAC6 (unknown origin) to IC50 for HDAC8 (unknown origin)

IC50 [1]	pIC50 (Histone deacetylase 2)	pIC50 (Histone deacetylase 8)	pIC50 [2]	SMILES	other results
> 20 µM	4.95	7.22	5.74	O=C(NO)c1cccc(S(=O)(=O)NCCc2ccccc2)c1	pIC50 (PC-3): < 4.30; INH [3]: Not Active; pIC50 (HeLa): < 4.30; pIC50 [4]: 4.59; inhibition (INH) [5]: Not Active; pIC50 (Jurkat): 5.10; pIC50 (HEL): 4.48; pIC50 (MOLT-4): 5.21; pIC50 (K562): < 4.30; Ratio IC50 (Homo sapiens [6]): > 180; Ratio IC50 (Homo sapiens [7]): 30
> 20 µM	4.84	7.30	5.82	O=C(NO)c1cccc(S(=O)(=O)Nc2ccccc2)c1	pIC50 (PC-3): < 4.30; INH [3]: Not Active; pIC50 (HeLa): < 4.30; inhibition (INH) [5]: Not Active; pIC50 (Jurkat): 4.55; pIC50 (HEL): < 4.30; pIC50 (MOLT-4): 4.65; pIC50 (K562): < 4.30; Ratio IC50 (Homo sapiens [6]): > 180; Ratio IC50 (Homo sapiens [7]): 30
> 20 µM	4.33	7.10	5.59	O=C(NO)c1cccc(S(=O)(=O)NCc2ccccc2)c1	pIC50 (PC-3): < 4.30; INH [3]: Not Active; pIC50 (HeLa): < 4.30; pIC50 [4]: 4.44; inhibition (INH) [5]: Not Active; pIC50 (Jurkat): 4.91; pIC50 (HEL): < 4.30; pIC50 (MOLT-4): 4.95; pIC50 (K562): < 4.30; Ratio IC50 (Homo sapiens [6]): > 180; Ratio IC50 (Homo sapiens [7]): 30
> 20 µM	–	–	–	COc1ccc(NC(=O)[C@H](Cc2c[nH]c3ccccc23)NS(=O)(=O)c2cccc(C(=O)NO)c2)cc1	–
> 20 µM	–	–	–	COc1ccc(NC(=O)[C@@H](NS(=O)(=O)c2cccc(C(=O)NO)c2)c2ccccc2)cc1	–

Further lines, the molecule ahead of its results:

SMILES	IC50 [1]	pIC50 (Histone deacetylase 2)	pIC50 (Histone deacetylase 8)	pIC50 [2]	other results
O=C(NO)c1cccc(S(=O)(=O)N[C@@H](Cc2c[nH]c3ccccc23)C(=O)Nc2ccccc2)c1	> 20 µM	4.15	5.52	5.23	–
O=C(NO)c1cccc(S(=O)(=O)N[C@H](C(=O)Nc2ccccc2)c2ccccc2)c1	> 20 µM	< 4.00	6.04	5.17	–
COc1ccc(Cn2ccc3ccc(C(=O)NO)cc32)cc1	–	–	–	–	pIC50 (PC-3): 4.72; pIC50 (HeLa): < 4.60; pIC50 [4]: 4.77; pIC50 (Jurkat): 5.35; pIC50 (HEL): 4.97; pIC50 (MOLT-4): 5.03; pIC50 (K562): < 4.60
O=C(/C=C/c1cccc(S(=O)(=O)Nc2ccccc2)c1)NO [BELINOSTAT]	–	–	–	–	pIC50 (HeLa): 6.29; pIC50 [4]: 6.51; pIC50 (Jurkat): 7.15; pIC50 (HEL): 7.00; pIC50 (MOLT-4): 6.85
O=C(NO)c1cccc(S(=O)(=O)N[C@@H](Cc2c[nH]c3ccccc23)C(=O)Nc2ccc(Cl)cc2)c1	> 20 µM	–	–	–	–
O=C(NO)c1cccc(S(=O)(=O)N[C@H](C(=O)Nc2ccc(F)cc2)c2ccccc2)c1	> 20 µM	–	–	–	–
CC(C)[C@H](NS(=O)(=O)c1cccc(C(=O)NO)c1)C(=O)Nc1ccccc1	> 20 µM	< 4.00	4.47	4.39	–
O=C(NO)c1cccc(S(=O)(=O)N[C@@H](Cc2c[nH]c3ccccc23)C(=O)NCc2ccccc2)c1	> 20 µM	< 4.00	4.72	4.61	–
O=C(CCCCCCC(=O)Nc1ccccc1)NO [VORINOSTAT]	–	–	–	–	inhibition (INH) [5]: Active
O=C(NO)c1cccc(S(=O)(=O)N[C@H](C(=O)Nc2ccc(Cl)cc2)c2ccccc2)c1	> 20 µM	–	–	–	–
O=C(NO)c1cccc(S(=O)(=O)N[C@@H](Cc2c[nH]c3ccccc23)C(=O)Nc2ccc(F)cc2)c1	> 20 µM	–	–	–	–
O=C(CNS(=O)(=O)c1cccc(C(=O)NO)c1)Nc1ccccc1	> 20 µM	< 4.00	5.46	4.85	–
O=C(NO)c1cccc(S(=O)(=O)N[C@H](C(=O)NCc2ccccc2)c2ccccc2)c1	> 20 µM	< 4.00	5.04	4.47	–
CN1CCc2c(c3ccccc3n2Cc2ccc(C(=O)NO)cc2)C1 [TUBASTATIN A]	–	–	–	–	inhibition (INH) [5]: Active
C[C@H](NS(=O)(=O)c1cccc(C(=O)NO)c1)C(=O)Nc1ccccc1	> 20 µM	< 4.00	4.62	4.56	–
